Laboratory results as given in PubChem BioAssay (NCI).
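Grown in 96-well plates, cells were treated for 48 hours with each compound at five concentrations. Insufficient inhibition: endpoint recorded as highest concentration tested. TGI is the concentration that stops growth completely.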

Assays:
Assay in all cases: NCI-60 cell line screen, 48 h
786-0 renal = system: 786-0 renal
A498 renal = system: A498 renal
HCT-116 colon = system: HCT-116 colon
HCT-15 colon = system: HCT-15 colon
HT29 colon = system: HT29 colon
NCI-H226 lung = system: NCI-H226 lung
NCI-H23 lung = system: NCI-H23 lung
OVCAR-3 ovarian = system: OVCAR-3 ovarian
OVCAR-8 ovarian = system: OVCAR-8 ovarian
RPMI-8226 leukemia = system: RPMI-8226 leukemia
RXF 393 renal = system: RXF 393 renal
U251 CNS = system: U251 CNS
HOP-92 NSCLC = system: HOP-92 NSCLC
IGROV1 ovarian = system: IGROV1 ovarian
LOX IMVI melanoma = system: LOX IMVI melanoma
NCI-H522 lung = system: NCI-H522 lung
TK-10 renal = system: TK-10 renal
SR leukemia = system: SR leukemia

Row | Compound | TGI (786-0 renal) [µM] | TGI (A498 renal) [µM] | TGI (HCT-116 colon) [µM] | TGI (HCT-15 colon) [µM] | TGI (HT29 colon) [µM] | TGI (NCI-H226 lung) [µM] | TGI (NCI-H23 lung) [µM] | TGI (OVCAR-3 ovarian) [µM] | TGI (OVCAR-8 ovarian) [µM] | TGI (RPMI-8226 leukemia) [µM] | TGI (RXF 393 renal) [µM] | TGI (U251 CNS) [µM] | TGI (HOP-92 NSCLC) [µM] | TGI (IGROV1 ovarian) [µM] | TGI (LOX IMVI melanoma) [µM] | TGI (NCI-H522 lung) [µM] | TGI (TK-10 renal) [µM] | TGI (SR leukemia) [µM]
1 | CCOC(CI)O[C@@H]1C=C[C@H](OC(C)=O)C1 (stereo partly drawn) | > 100 | > 100 | > 100 | > 100 | > 100 | > 100 | > 100 | > 100 | > 100 | > 100 | > 100 | > 100 | – | – | – | – | – | –
2 | COc1ccc2c(c1)CCCN1Cc3cc(OC)c(OC)cc3CC21 (stereo not drawn) | > 100 | – | > 100 | > 100 | > 100 | > 100 | > 100 | > 100 | > 100 | – | > 100 | > 100 | > 100 | > 100 | > 100 | > 100 | > 100 | –
3 | C[C@H]1CCCCC[C@@H]2CC(=O)CC2C(=O)CCC(=O)O1 (stereo partly drawn) | > 100 | – | > 100 | > 100 | > 100 | > 100 | > 100 | > 100 | > 100 | > 100 | > 100 | > 100 | > 100 | > 100 | – | > 100 | > 100 | > 100
4 | Nc1ccc(Nc2c3ccccc3nc3ccccc23)cc1 | > 10 | – | 9.52 | > 10 | > 10 | 7.52 | > 10 | > 10 | > 10 | > 10 | > 10 | > 10 | – | > 10 | 2.35 | > 10 | > 10 | > 10
5 | COCOCC1CCCN1CN1CCC[C@H]1COCOC (stereo partly drawn) | > 100 | > 100 | > 100 | > 100 | > 100 | > 100 | > 100 | > 100 | > 100 | 99.5 | – | > 100 | > 100 | > 100 | – | > 100 | > 100 | > 100
6 | C[C@]12CC[C@H](O)C=C1CC[C@@H]1[C@@H]2CC[C@]2(C)C(=N/O)/C(=C/c3ccncc3)C[C@@H]12 | 25.5 | – | 18.7 | > 100 | 18.9 | 25.3 | 63.7 | 19.1 | 76 | 19.9 | 26.3 | 19.6 | 31.6 | 81.6 | > 100 | 33.3 | 38.3 | 16.2
7 | COc1c(C)c(C/C=C(\C)CCCCO)c(OC)c(OC)c1OC | > 100 | – | > 100 | > 100 | > 100 | – | > 100 | > 100 | > 100 | 35.4 | > 100 | > 100 | > 100 | > 100 | 61.2 | > 100 | > 100 | > 100
